Measured values from US20050013869A1, “Sustained release formulation for carbamates and a method therefor” (priority 2003, published 2005).

Key:
[1] = in vitro medium, 37° C., cited from earlier work
[2] = K. Walter et al. (1995); cited from earlier work
[3] = In vivo pharmacokinetic study after oral (intragastric) administration in rats; conditions: rat, oral solution, 1 mg/kg
Experimental: Naked physostigmine solution (1 mg/kg) or physostigmine-loaded RG 502 microparticles suspension (10% drug loading) were fed intragastrically into the overnight-fasted rats (weight-280g) via a rigid dosing gavage needle into the posterior of the rat pharynx, directly into the stomach. Immediately before administration of the tablets and solutions, a 300 μL sample of blood was taken at what was t=0 hrs (pre-dose), through the exposed catheter. Subsequent samples were drawn from the catheter at intervals over a period of 48 hours after drug administration. After each withdrawal, an equal volume of 0.9% normal saline was injected back into the blood stream to minimize loss of body fluid. Water and food were available ad libitum in the metabolic cages. Each 300 μl volume of blood was collected in heparinised microcentrifuge tubes and centrifuged under 3000 g for 5 minutes at 4° C. to obtain the plasma. All plasma samples were stored at −70° C. in fresh heparinised microcentrifuge tubes. Physostigmine is extracted immediately from it prior to analysis by high performance liquid chromatography (HPLC) described by Zhao et al (2003) Journal of Chromatography B 784- 323-329). The WinNonlin® Version 3.2 (Pharsight Corporation, USA) was used to calculate the pharmacokinetic parameters based on the non-compartment model.

CNC(=O)Oc1ccc2c(c1)[C@]1(C)CCN(C)[C@@H]1N2C [physostigmine, Physostigmine]
physostigmine degraded ([1]; in 6 days): about 40% | physostigmine degradation rate [1]: 7 % per day | elimination half-life [2]: 12 to 40 min | Tmax ([3]; plasma): 40.8 min | AUC ([3]; plasma, read-out: AUC (hr*μg/mL), Mean): 0.77 µg·h/mL | Cmax ([3]; plasma, read-out: Cmax (μg/mL), Mean): 0.57 µg/mL | half-life ([3]; plasma, read-out: Half life (hr), Mean (converted)): 1.16 h | Cl (mL/hr/kg), Mean [3]: 998.86 mL/h/kg | Vd (mL/kg), Mean [3]: 1584.37 mL/kg
